Experimental data: PubChem BioAssay (NCI)
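Method: 48-hour compound exposure of cells in 96-well plates, five concentrations, linear interpolation of endpoints. Here, GI50 denotes the concentration required for 50% inhibition of growth. TGI denotes the concentration required for complete inhibition of growth.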

Tests used:
Test in all cases: DTP human tumour cell line panel, 48 h
[1] = tested on: EKVX NSCLC
[2] = tested on: LOX IMVI melanoma
[3] = tested on: SNB-75 CNS
[4] = tested on: NCI/ADR-RES ovarian
[5] = tested on: 786-0 renal
[6] = tested on: KM12 colon
[7] = tested on: RXF 393 renal
[8] = tested on: OVCAR-5 ovarian
[9] = tested on: HCC-2998 colon
[10] = tested on: T-47D breast

Row | SMILES | GI50 [1] [µM] | TGI [1] [µM] | GI50 [2] [µM] | TGI [2] [µM] | GI50 [3] [µM] | TGI [3] [µM] | GI50 [4] [µM] | TGI [4] [µM] | GI50 [5] [µM] | TGI [5] [µM] | GI50 [6] [µM] | TGI [6] [µM] | GI50 [7] [µM] | TGI [7] [µM] | GI50 [8] [µM] | TGI [8] [µM] | TGI [9] [µM] | TGI [10] [µM] | GI50 [10] [µM] | GI50 [9] [µM]
1 | Cc1ccc(C(=O)N=Nc2c(O)[nH]c3ccc(Cl)cc23)cc1 | > 50 | > 50 | 31.2 | > 50 | 16.6 | > 50 | > 50 | > 50 | > 50 | > 50 | > 50 | > 50 | 13.7 | > 50 | 44.6 | > 50 |  |  |  | 
2 | Clc1cccc2c1OCC1C(c3ccccc3)=NN(c3ccccc3)C21 (stereo not given) |  | > 100 |  | > 100 |  | > 100 |  |  |  | > 100 |  | > 100 |  | > 100 |  | > 100 | > 100 |  |  | 
3 | Nc1nc(-c2cc(-c3cccc4ccccc34)nc(N)n2)cc(-c2cccc3ccccc23)n1 |  | > 100 |  | > 100 |  |  |  | > 100 |  | > 100 |  | > 100 |  | > 100 |  | > 100 | > 100 | > 100 |  | 
4 | O=C(Sc1sc(=S)sc1SC(=O)c1ccccc1)c1ccccc1 |  | > 100 |  |  |  | 78.3 |  |  |  | > 100 |  | > 100 |  | > 100 |  | > 100 | > 100 |  |  | 
5 | C/C=C1\CCC2c3[nH]c4ccccc4c3CCN2C1 (stereo not given) |  | > 100 |  |  |  | > 100 |  |  |  | > 100 |  | > 100 |  | > 100 |  |  |  |  |  | 
6 | COc1cc(NC(C)CCCN)c2ncccc2c1Sc1ccc(Cl)cc1 (stereo not given) | 2.14 | 4.72 |  |  | 1.7 | 3.42 | 1.77 | 3.42 | 1.89 | 3.57 | 1.77 | 3.27 | 1.7 | 3.07 | 1.73 | 3.28 | 3.17 | 3.34 | 1.77 | 1.75
7 | Cc1cc2c(=O)[nH]c(N)nc2nc1C |  | > 100 |  | > 100 |  | > 100 |  | > 100 |  | > 100 |  | > 100 |  | > 100 |  | > 100 |  | > 100 |  | 
8 | Cc1cc2c(=O)cc(-c3ccc(F)cc3)oc2c(C(=O)O)c1C |  | > 100 |  | > 100 |  | > 100 |  |  |  | > 100 |  | > 100 |  | > 100 |  | > 100 |  |  |  | 
9 | NCCN1C(=O)c2ccccc2C1(O)c1ccc(Cl)cc1 (stereo not given) |  | 52.3 |  | 32.8 |  | 97.6 |  | > 100 |  | 30.9 |  | 30.5 |  | 55.8 |  | 39.8 |  | 37.8 |  | 
10 | CC/C(CC(=O)CCC(=O)Nc1ccc(C)c(C)c1)=N\NC(=O)C(N)=O |  | > 100 |  |  |  | > 100 |  |  |  | > 100 |  |  |  |  |  | > 100 |  |  |  | 
11 | CC12CC(Sc3ccccc3N1)c1ccccc1O2 (stereo not given) |  | 33.4 |  | 27 |  | 53.3 |  |  |  | 31.6 |  | 28.6 |  | 30.2 |  | 33.3 | 31 |  |  | 
